Values after ≈ are worked out from the molar mass of the structure shown.
Experiments:
SCC-25 cells = test: MTT anticancer assay in SCC-25 cells; format: cell-based; conditions: for IC50: MTT, 24 h; for SI (selectivity index): NOK-si versus SCC-25
Method: (§1) Boronic acid and benzoboroxole derivatives have been identified as potential anticancer agents. To investigate their efficacy against head and neck cancer cell lines, SCC-25 cells were utilized in this study, as a model for oral squamous cell carcinoma. Additionally, cytotoxicity was performed in normal oral keratinocytes NOK-si cells to evaluate the selective index of the compounds. […] The selectivity of the compounds is quantified by the selectivity index (SI), with those with an SI greater than 3.0 being considered promising for further evaluation, in accordance with internal protocols.
(§2) The SCC-25 was purchased from Rio de Janeiro Cell Bank, and NOK-si was kindly provided by Prof. Carlos Rossa from the School of Dentistry—UNESP. The cell lines were initially thawed and cultured in 25 cm^2 cell culture flasks. Cell growth was monitored using a microscope, and the culture medium was changed periodically. Upon reaching confluency, cell dissociation was achieved by adding 5 mL of trypsin (Sigma-Aldrich, St Louis, MO, USA) and incubating the bottles in a CO2 incubator for 10 min. Subsequently, the cells were transferred to 15 mL Falcon tubes and centrifuged at 2000 rpm for 10 min. Cell counting was performed using a Countess II FL automated cell counter (ThermoFischer, Waltham, MA, USA). The cells were seeded at a density of 30,000 cells per well in 96-well plates. The plates were then incubated at 37 °C in 5% CO2 for 24 h. Following this, test compounds were incubated for another 24 h at 10 different concentrations: 50, 25, 12.5, 6.25, 3.12, 1.56, 0.78, 0.39, 0.19, and 0.097 µg/mL. After the specified time, MTT reagent (3 mg/mL) (Sigma-Aldrich, St Louis, MO, USA) dissolved in phenol-free RPMI 1640 was added and incubated for 4 h. The formed MTT crystals were solubilized using 2-propanol P.A (Sigma-Aldrich, St Louis, MO, USA) with agitation. Absorbance was read at 562 nm using an EZ Read 400 microplate reader (Biochrom, Cambridge, UK) and ADAP 2.0 Biochrom software (version 2.0). IC50 values and graphs were calculated by Dr. Paula Aboud Barbugli using Excel and Prism software (version 10.4.1). The MTT assay results were evaluated for normality using the Shapiro–Wilk test, followed by one-way ANOVA with Tukey’s post hoc test at a significance level of 5%.

[1] = system: T. mentagrophytes (ATCC 11481); test: Antifungal susceptibility test (CLSI M38-A2 microdilution, resazurin), MIC90; conditions: Trichophyton mentagrophytes, ATCC11481|ATCC28189, read-out: T. mentagrophytes ATCC 28189 MIC90
T. rubrum ATCC 28189 = test: as above; conditions: Trichophyton rubrum, ATCC28189, read-out: T. rubrum ATCC 28189 MIC90
[2] = system: M. tuberculosis H37RV ATCC 27294 strain; test: Resazurin microtiter assay (REMA), MIC90; format: cell-based; conditions: Mycobacterium tuberculosis, cut-off 25 µM
NOK-si cells = test: MTT cytotoxicity assay in normal oral keratinocytes NOK-si; format: cell-based; conditions: Keratinocyte, 24 h, read-out: NOK-si IC50
Method: as §1, §2

HaCaT cell line = test: Resazurin cytotoxicity assay using HaCaT cells; format: cell-based, human; conditions: compared to the benzoboroxole derivatives 44 and 45
Method: For the cytotoxicity assay, the HaCaT cell line, which is characterized as immortalized normal human keratinocytes, was used.
For the cytotoxicity assay, the HaCat cell line, characterized as immortalized normal human keratinocytes, was used. The cells were maintained in (DMEM) supplemented with 10% of bovine fetal serum (BFS) (Sigma-Aldrich, St Louis, MO, USA) in cell culture bottles with 5% CO2 at 37 °C. After a confluence of 75%, the cells were treated with trypsin + EDTA 0.25%, centrifugated at 1500 rpm for 10 min, and 5 × 10^4 cells/well were seeded in 96-well plates for incubation for 24 h for cell adhesion before treatment. After adhesion, the cells were treated with 100 µL of the compounds 34 and 40, with fungi activity in concentrations between 3.90 and 125 µg/mL. Regarding the controls, DMSO in the concentration range of (1–4%) was used as a positive control for cytotoxicity; the beyond negative control comprised HaCaT cells only in DMEM medium (Sigma-Aldrich, St Louis, MO, USA). After 24 h of treatment, 30 µL of resazurin 50 µM was added to each well for 4 h, and the plates were read at 560 and 600 nm using microplate reader BioTek (Agilent, Santa Clara, CA, USA), Gen 5 software (version 2.09). The […] (IC50) for each compound was determined based on resazurin reduction. Three independent assays were performed.

O=c1[nH]cc(F)c(=O)[nH]1 [5-fluorouracil, reference compound]
IC50 (SCC-25 cells; Homo sapiens, SCC-25, 24 h): 1800 µM

O=C(Nc1ccc(N2CCN(c3ccccn3)CC2)c(F)c1)c1cccc(B(O)O)c1 [Compound 29, {3-({3-Fluoro-4-[4-(pyridin-2-yl)piperazin-1-yl]phenyl}carbamoyl)phenyl}boronic acid]
MIC90 [1]: 297 µM (≈ 125 µg/mL) | MIC90 (T. rubrum ATCC 28189): 297 µM (≈ 125 µg/mL) | MIC90 [2]: > 25 µM | CC50 (NOK-si cells): 110 µM | IC50 (SCC-25 cells; Homo sapiens, SCC-25, 24 h): 79.1 µM | IC50 (SCC-25 cells): 117 µM | SI (selectivity index) (SCC-25 cells): <1

O=C(Nc1ccc(N2CCN(c3ncccn3)CC2)c(F)c1)c1cccc(B(O)O)c1 [Compound 30, [3-({3-Fluoro-4-[4-(pyrimidin-2-yl)piperazin-1-yl]phenyl}carbamoyl)phenyl]boronic acid]
MIC90 [1]: 297 µM (≈ 125 µg/mL) | MIC90 (T. rubrum ATCC 28189): 297 µM (≈ 125 µg/mL) | MIC90 [2]: > 25 µM | SI (selectivity index) (SCC-25 cells): <1

O=C(Nc1ccc(N2CCN(c3ccc(F)cc3)CC2)c(F)c1)c1cccc(B(O)O)c1 [Compound 31, [3-({3-Fluoro-4-[4-(4-fluorophenyl)piperazin-1-yl]phenyl}carbamoyl)phenyl]boronic acid]
MIC90 [1]: 286 µM (≈ 125 µg/mL) | MIC90 (T. rubrum ATCC 28189): 286 µM (≈ 125 µg/mL) | MIC90 [2]: > 25 µM | CC50 (NOK-si cells): > 221 µM | IC50 (SCC-25 cells; Homo sapiens, SCC-25, 24 h): 59.1 µM | SI (selectivity index) (SCC-25 cells): 3.73

O=C(Nc1ccc(N2CCSCC2)c(F)c1)c1cccc(B(O)O)c1 [Compound 32, {3-[(3-Fluoro-4-thiomorpholinophenyl)carbamoyl]phenyl}boronic acid]
MIC90 [1]: 347 µM (≈ 125 µg/mL) | MIC90 (T. rubrum ATCC 28189): 347 µM (≈ 125 µg/mL) | MIC90 [2]: > 25 µM | SI (selectivity index) (SCC-25 cells): <1

O=C(Nc1ccc(N2CCOCC2)c(F)c1)c1cccc(B(O)O)c1 [Compound 33, {3-[(3-Fluoro-4-morpholinophenyl)carbamoyl]phenyl}boronic acid]
MIC90 [1]: 363 µM (≈ 125 µg/mL) | MIC90 (T. rubrum ATCC 28189): 363 µM (≈ 125 µg/mL) | MIC90 [2]: > 25 µM | SI (selectivity index) (SCC-25 cells): <1

O=C(Nc1ccc(N2CCCCCC2)c(F)c1)c1cccc(B(O)O)c1 [Compound 34, (3-{[4-(Azepan-1-yl)-3-fluorophenyl]carbamoyl}phenyl)boronic acid]
cytotoxic effects in HaCaT cells (comparison in words) (HaCaT cell line): higher cytotoxic effects | MIC90 [1]: 21 µM (≈ 7.48 µg/mL) | MIC90 (T. rubrum ATCC 28189): 42 µM (≈ 15 µg/mL) | MIC90 [2]: > 25 µM | CC50 (NOK-si cells): 129 µM | IC50 (SCC-25 cells; Homo sapiens, SCC-25, 24 h): 67.6 µM | SI (selectivity index) (SCC-25 cells): 1.91

O=C(Nc1ccc(N2CCN(c3ccccn3)CC2)c(F)c1)c1ccc(B(O)O)cc1 [Compound 35, [4-({3-Fluoro-4-[4-(pyridin-2-yl)piperazin-1-yl]phenyl}carbamoyl)phenyl]boronic acid]
MIC90 [1]: 297 µM (≈ 125 µg/mL) | MIC90 (T. rubrum ATCC 28189): 297 µM (≈ 125 µg/mL) | MIC90 [2]: > 25 µM | CC50 (NOK-si cells): 221 µM | IC50 (SCC-25 cells; Homo sapiens, SCC-25, 24 h): 45 µM | IC50 (SCC-25 cells): 45.6 µM | SI (selectivity index) (SCC-25 cells): 3.37

O=C(Nc1ccc(N2CCN(c3ncccn3)CC2)c(F)c1)c1ccc(B(O)O)cc1 [Compound 36, [4-({3-Fluoro-4-[4-(pyrimidin-2-yl)piperazin-1-yl]phenyl}carbamoyl)phenyl]boronic acid]
MIC90 [1]: 297 µM (≈ 125 µg/mL) | MIC90 (T. rubrum ATCC 28189): 297 µM (≈ 125 µg/mL) | MIC90 [2]: > 25 µM | CC50 (NOK-si cells): 134 µM | IC50 (SCC-25 cells; Homo sapiens, SCC-25, 24 h): 133 µM | SI (selectivity index) (SCC-25 cells): 1.00

O=C(Nc1ccc(N2CCN(c3ccc(F)cc3)CC2)c(F)c1)c1ccc(B(O)O)cc1 [Compound 37, [4-({3-Fluoro-4-[4-(4-fluorophenyl)piperazin-1-yl]phenyl}carbamoyl)phenyl]boronic acid]
MIC90 [1]: 286 µM (≈ 125 µg/mL) | MIC90 (T. rubrum ATCC 28189): 286 µM (≈ 125 µg/mL) | MIC90 [2]: > 25 µM | CC50 (NOK-si cells): 123 µM | IC50 (SCC-25 cells; Homo sapiens, SCC-25, 24 h): 79.1 µM | SI (selectivity index) (SCC-25 cells): 1.55

O=C(Nc1ccc(N2CCSCC2)c(F)c1)c1ccc(B(O)O)cc1 [Compound 38, {4-[(3-Fluoro-4-thiomorpholinophenyl)carbamoyl]phenyl}boronic acid]
MIC90 [1]: 347 µM (≈ 125 µg/mL) | MIC90 (T. rubrum ATCC 28189): 347 µM (≈ 125 µg/mL) | MIC90 [2]: > 25 µM | CC50 (NOK-si cells): 149 µM | SI (selectivity index) (SCC-25 cells): <1

O=C(Nc1ccc(N2CCOCC2)c(F)c1)c1ccc(B(O)O)cc1 [Compound 39, {4-[(3-Fluoro-4-morpholinophenyl)carbamoyl]phenyl}boronic acid]
MIC90 [1]: 363 µM (≈ 125 µg/mL) | MIC90 (T. rubrum ATCC 28189): 363 µM (≈ 125 µg/mL) | MIC90 [2]: > 25 µM | CC50 (NOK-si cells): 77.1 µM | IC50 (SCC-25 cells; Homo sapiens, SCC-25, 24 h): 74.1 µM | SI (selectivity index) (SCC-25 cells): 1.04

O=C(Nc1ccc(N2CCCCCC2)c(F)c1)c1ccc(B(O)O)cc1 [Compound 40, (4-{[4-(Azepan-1-yl)-3-fluorophenyl]carbamoyl}phenyl)boronic acid]
cytotoxic effects in HaCaT cells (comparison in words) (HaCaT cell line): higher cytotoxic effects | MIC90 [1]: 42 µM (≈ 15 µg/mL) | MIC90 (T. rubrum ATCC 28189): 88 µM (≈ 31.3 µg/mL) | MIC90 [2]: > 25 µM | CC50 (NOK-si cells): 127 µM | IC50 (SCC-25 cells; Homo sapiens, SCC-25, 24 h): 85.1 µM | SI (selectivity index) (SCC-25 cells): 1.49

O=C(Nc1ccc(N2CCN(c3ccccn3)CC2)c(F)c1)c1ccc2c(c1)COB2O [Compound 44, N-{3-fluoro-4-[4-(pyridin-2-yl)piperazin-1-yl]phenyl}-1-hydroxy-1,3-dihydrobenzo[c][1,2]oxaborole-5-carboxamide]
MIC90 [1]: 146 µM (≈ 63.1 µg/mL) | MIC90 (T. rubrum ATCC 28189): 289 µM (≈ 125 µg/mL) | MIC90 [2]: > 25 µM | killing effect in SCC-25 cells (SCC-25 cells): absent killing effect | SI (selectivity index) (SCC-25 cells): <1

O=C(Nc1ccc(N2CCSCC2)c(F)c1)c1ccc2c(c1)COB2O [Compound 45, N-(3-fluoro-4-thiomorpholinophenyl)-1-hydroxy-1,3-dihydrobenzo[c][1,2]oxaborole-5-carboxamide]
MIC90 [1]: 336 µM (≈ 125 µg/mL) | MIC90 (T. rubrum ATCC 28189): 336 µM (≈ 125 µg/mL) | MIC90 [2]: > 25 µM | CC50 (NOK-si cells): 65.8 µM | IC50 (SCC-25 cells; Homo sapiens, SCC-25, 24 h): 83 µM | SI (selectivity index) (SCC-25 cells): <1

NNC(=O)c1ccncc1 [Isoniazide, reference compound]
MIC90 [2]: 0.11 µM (≈ 0.0151 µg/mL)

CN(C/C=C/C#CC(C)(C)C)Cc1cccc2ccccc12 [Terbinafine, reference compound]
MIC90 [1]: 2.5e-05 µM (≈ 7.29e-06 µg/mL) | MIC90 (T. rubrum ATCC 28189): 0.0001 µM (≈ 2.91e-05 µg/mL)

Source: article PMC11901438, “Synthesis and Evaluation of Boron-Containing Heterocyclic Compounds with Antimicrobial and Anticancer Activities” (Molecules, 2025)
